Our source for the EC50 values is patent US12612409B2, “Pyrrolopyrimidines as CFTR potentiators” (Cystic Fibrosis Foundation, priority 2016, dated 2026).

The target in assay [1] is T1, CFTR in F508del/F508del primary CF hBE cells (Homo sapiens, UniProt P13569, DEL508-508).
T1 construct: Primary cystic fibrosis human bronchial epithelial (CF hBE) cells were expanded and cultured; endogenous in cells; host or cells: primary CF human bronchial epithelial cells, genotype F508del/F508del
Nature of the assay: Ussing chamber electrophysiology assay of CFTR potentiation in F508del/F508del CF bronchial epithelial cells (27° C.). Type of assay: cell-based. A digest of the protocol:
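Well-differentiated primary CF hBE cells (>30 days air/liquid interface) in Ussing chambers, HEPES saline both sides, voltage clamped to zero. Amiloride 30 uM, forskolin 10 uM, four rising compound concentrations, then CFTRinh-172 20 uM added at 20-25 min intervals. Short-circuit current scaled to DMSO (0%) and a positive control potentiator maximum (100%).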

Assay [2] has as its target T2, recombinant F508del V470 CFTR in Fischer rat thyroid (FRT) cells (Homo sapiens, UniProt P13569, DEL508-508).
T2 construct: expressed in transfected cells
Nature of the assay: FRT ion flux assay of F508del CFTR potentiation. Type of assay: cell-based. The following applies: FRT cells expressing F508del V470 CFTR, forskolin 20 uM, 27° C. pre-incubation. An outline of the steps:
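FRT cells co-expressing F508del V470 CFTR and halide-sensitive YFP, temperature-corrected at 27° C for 16-24 h, then treated 30 min with compound plus 20 uM forskolin. Iodide addition quenches YFP, read after ~21 s; ratio scaled to DMSO (0%) and positive control potentiator (100%).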

pEC50: −log10 of the molar value.

T2 sequence (P13569 with tags, fused parts or gaps DEL508-508): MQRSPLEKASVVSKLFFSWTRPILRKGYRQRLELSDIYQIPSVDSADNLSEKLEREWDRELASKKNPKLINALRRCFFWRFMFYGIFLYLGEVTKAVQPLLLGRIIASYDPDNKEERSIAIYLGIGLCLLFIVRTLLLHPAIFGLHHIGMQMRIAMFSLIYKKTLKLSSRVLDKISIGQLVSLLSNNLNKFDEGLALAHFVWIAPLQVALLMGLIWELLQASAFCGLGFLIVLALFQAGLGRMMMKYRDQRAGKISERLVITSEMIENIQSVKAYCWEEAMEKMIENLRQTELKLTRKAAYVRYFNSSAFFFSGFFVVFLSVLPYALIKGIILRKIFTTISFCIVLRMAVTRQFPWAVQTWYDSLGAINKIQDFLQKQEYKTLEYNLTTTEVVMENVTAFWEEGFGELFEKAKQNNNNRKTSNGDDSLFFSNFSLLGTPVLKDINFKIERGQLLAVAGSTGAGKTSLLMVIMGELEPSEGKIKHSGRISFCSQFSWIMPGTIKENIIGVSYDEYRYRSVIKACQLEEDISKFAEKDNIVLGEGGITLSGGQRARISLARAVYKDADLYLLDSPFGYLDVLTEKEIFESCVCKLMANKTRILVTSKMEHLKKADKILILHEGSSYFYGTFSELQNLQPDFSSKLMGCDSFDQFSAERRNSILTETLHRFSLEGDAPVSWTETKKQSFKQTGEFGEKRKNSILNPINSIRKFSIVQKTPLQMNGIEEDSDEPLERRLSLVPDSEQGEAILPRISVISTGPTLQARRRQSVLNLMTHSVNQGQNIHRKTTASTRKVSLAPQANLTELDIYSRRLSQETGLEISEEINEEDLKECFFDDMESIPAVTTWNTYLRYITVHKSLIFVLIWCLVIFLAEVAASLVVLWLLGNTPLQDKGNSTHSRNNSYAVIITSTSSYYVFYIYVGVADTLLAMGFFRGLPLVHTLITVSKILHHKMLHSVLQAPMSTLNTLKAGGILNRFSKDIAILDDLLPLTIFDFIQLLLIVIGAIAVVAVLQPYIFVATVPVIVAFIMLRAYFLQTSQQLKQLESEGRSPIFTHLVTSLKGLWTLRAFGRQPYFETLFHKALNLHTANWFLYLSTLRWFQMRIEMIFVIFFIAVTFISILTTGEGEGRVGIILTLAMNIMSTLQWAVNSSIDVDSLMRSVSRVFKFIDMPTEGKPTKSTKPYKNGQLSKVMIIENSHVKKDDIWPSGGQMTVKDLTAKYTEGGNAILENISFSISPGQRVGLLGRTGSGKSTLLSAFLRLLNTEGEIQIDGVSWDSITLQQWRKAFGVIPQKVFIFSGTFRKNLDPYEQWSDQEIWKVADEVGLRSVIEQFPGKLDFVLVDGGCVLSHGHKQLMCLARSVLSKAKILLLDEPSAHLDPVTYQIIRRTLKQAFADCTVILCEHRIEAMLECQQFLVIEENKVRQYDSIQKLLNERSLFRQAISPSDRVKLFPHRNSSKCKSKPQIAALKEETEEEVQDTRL
T1 sequence (P13569 with tags, fused parts or gaps DEL508-508): as above

For orientation: pEC50 means −log10 of the EC50, conventionally taken in molar units. With `CCC(c1cn(-c2ccc(F)c(F)c2)nn1)n1cc(-c2cc(F)cnc2OC)c2c(N)ncnc21` (single isomer, unassigned; enantiomer 2) [Example 156, 7-{1-[1-(3,4-Difluorophenyl)-1H-1,2,3-triazol-4-yl]propyl}-5-(5-fluoro-2-methoxypyridin-3-yl)-7H-pyrrolo[2,3-d]pyrimidin-4-amine, enantiomer 2], the pEC50 is 7.24 in assay [1] and 6.64 in assay [2].

For the compound `CC(c1cn(-c2ccccc2F)nn1)n1cc(-c2ccc(Cl)cc2)c2c(N)ncnc21` (single isomer, unassigned) [Example 111], the pEC50 in assay [1] is 6.87; in assay [2], 6.27.

As for `CCC(c1cn(-c2cc(F)ccc2F)nn1)n1cc(-c2cnc(C(F)(F)F)nc2)c2c(N)ncnc21` (single isomer, unassigned) [Example 185, 7-{1-[1-(2,5-difluorophenyl)-1H-1,2,3-triazol-4-yl]propyl}-5-[2-(trifluoromethyl)pyrimidin-5-yl]-7H-pyrrolo[2,3-d]pyrimidin-4-amine], the pEC50 in assay [1] is 7.84; in assay [2] it was 7.46.

With `CCC(c1cn(-c2ccc(F)c(F)c2)nn1)n1cc(-c2cncnc2OC)c2c(N)ncnc21` (single isomer, unassigned; enantiomer 1) [Example 151, (+) 7-{1-[1-(3,4-Difluorophenyl)-1H-1,2,3-triazol-4-yl]propyl}-5-(4-methoxypyrimidin-5-yl)-7H-pyrrolo[2,3-d]pyrimidin-4-amine, enantiomer 1], the pEC50 in assay [1] was 7.45; in assay [2], 7.47.

Turning to `CC(c1cn(-c2ccccc2F)nn1)n1c(C#N)c(-c2cnc(C(F)(F)F)nc2)c2c(N)ncnc21` (single isomer, unassigned) [Example 9, 4-amino-7-{1-[1-(2-fluorophenyl)-1H-1,2,3-triazol-4-yl]ethyl}-5-[2-(trifluoromethyl)pyrimidin-5-yl]-7H-pyrrolo[2,3-d] pyrimidine-6-carbonitrile], the values for the pEC50 in assay [1] and in assay [2] were 7.69 and 7.92, respectively.

Consider `CCC(c1cn(-c2ccccc2F)nn1)n1cc(C2CC2)c2c(N)ncnc21` (single isomer, unassigned; enantiomer 2) [Example 316, (+) 5-Cyclopropyl-7-{1-[1-(2-fluorophenyl)-1H-1,2,3-triazol-4-yl]propyl}-7H-pyrrolo[2,3-d]pyrimidin-4-amine, enantiomer 2], for which the pEC50 in assay [1] was 6.27; in assay [2], 6.12.

Consider `CC(c1cn(-c2ncccc2F)nn1)n1cc(-c2ccc(OC3CC3)cc2)c2c(N)ncnc21` (stereo not shown) [Example 214, 5-[4-(Cyclopropoxy)phenyl]-7-{1-[1-(3-fluoropyridin-2-yl)-1H-1,2,3-triazol-4-yl]ethyl}-7H-pyrrolo[2,3-d]pyrimidin-4-amine], for which the pEC50 is 7.40 in assay [1] and 7.04 in assay [2].

Turning to `CCC(c1cn(-c2ccccc2F)nn1)n1c(C#N)c(-c2cnc(C(F)(F)F)nc2)c2c(N)ncnc21` (single isomer, unassigned) [Example 22, 4-Amino-7-{1-[1-(2-fluorophenyl)-1H-1,2,3-triazol-4-yl]propyl}-5-[2-(trifluoromethyl)pyrimidin-5-yl]-7H-pyrrolo[2,3-d]pyrimidine-6-carbonitrile], the values for the pEC50 in assay [1] and in assay [2] were 8.16 and 8.39, respectively.

`CCC(c1cn(-c2ccccc2F)nn1)n1cc(-c2cc(F)cnc2OC)c2c(N)ncnc21` (single isomer, unassigned; enantiomer 1) [Example 139, (+) 5-(5-Fluoro-2-methoxypyridin-3-yl)-7-{1-[1-(2-fluorophenyl)-1H-1,2,3-triazol-4-yl]propyl}-7H-pyrrolo[2,3-d]pyrimidin-4-amine, enantiomer 1]: the pEC50 is 8.52 in assay [1] and 8.24 in assay [2].

Consider `CCC(c1cn(-c2ccccc2)nn1)n1cc(-c2cnc(C(F)(F)F)nc2)c2c(N)ncnc21` (single isomer, unassigned; enantiomer 2) [Example 130, 7-[1-(1-Phenyl-1H-1,2,3-triazol-4-yl)propyl]-5-[2-(trifluoromethyl)pyrimidin-5-yl]-7H-pyrrolo[2,3-d]pyrimidin-4-amine, enantiomer 2], for which the pEC50 is 6.73 in assay [1] and 6.63 in assay [2].

For `CCC(c1cnn(-c2ccc(F)cc2F)c1)n1c(C#N)c(-c2cnc(C(F)(F)F)nc2)c2c(N)ncnc21` (single isomer, unassigned) [Example 21, 4-Amino-7-{1-[1-(2,4-difluorophenyl)-1H-pyrazol-4-yl]propyl}-5-[2-(trifluoromethyl)pyrimidin-5-yl]-7H-pyrrolo[2,3-d]pyrimidine-6-carbonitrile], the pEC50 was 9.35 in assay [1] and 9.06 in assay [2].

Turning to `CCC(c1cn(-c2cc(F)cc(F)c2)nn1)n1cc(-c2cnc(C(F)(F)F)nc2)c2c(N)ncnc21` (single isomer, unassigned; enantiomer 2) [Example 312, 7-{1-[1-(3,5-Difluorophenyl)-1H-1,2,3-triazol-4-yl]propyl}-5-[2-(trifluoromethyl)pyrimidin-5-yl]-7H-pyrrolo[2,3-d]pyrimidin-4-amine, enantiomer 2], the pEC50 in assay [1] was 6.55; in assay [2] it was 5.99.

As for `CC(c1cn(-c2ccc(F)cc2F)nn1)n1c(C#N)c(-c2cnc(C(F)(F)F)nc2)c2c(N)ncnc21` (single isomer, unassigned) [Example 11, 4-Amino-7-{1-[1-(2,4-difluorophenyl)-1H-1,2,3-triazol-4-yl]ethyl}-5-[2-(trifluoromethyl)pyrimidin-5-yl]-7H-pyrrolo[2,3-d] pyrimidine-6-carbonitrile], the pEC50 in assay [1] is 7.48; in assay [2], 7.70.

Turning to `CCC(c1cn(-c2ccccc2F)nn1)n1cc(-c2cnc(C(F)F)nc2)c2c(N)ncnc21` (single isomer, unassigned; enantiomer 1) [Example 143, 5-[2-(Difluoromethyl)pyrimidin-5-yl]-7-{1-[1-(2-fluorophenyl)-1H-1,2,3-triazol-4-yl]propyl}-7H-pyrrolo[2,3-d]pyrimidin-4-amine, enantiomer 1], the negative-log EC50 (pEC50) is 7.59 in assay [1] and 7.98 in assay [2].

Turning to `COc1ncncc1-c1cn(C(c2cn(-c3ccccc3F)nn2)C2CC2)c2ncnc(N)c12` (single isomer, unassigned; enantiomer 1) [Example 174, (+) 7-{Cyclopropyl[1-(2-fluorophenyl)-1H-1,2,3-triazol-4-yl]methyl}-5-(4-methoxypyrimidin-5-yl)-7H-pyrrolo[2,3-d]pyrimidin-4-amine, enantiomer 1], the pEC50 in assay [1] is 7.50; in assay [2], 7.71.

As to `Nc1ncnc2c1c(-c1ccc(OC3CC3)cc1)cn2Cc1cn(-c2ccccc2F)nn1` [Example 77, 5-[4-(Cyclopropyloxy)phenyl]-7-{[1-(2-fluorophenyl)-1H-1,2,3-triazol-4-yl]methyl}-7H-pyrrolo[2,3-d]pyrimidin-4-amine], the negative logarithm of the EC50 (pEC50) in assay [1] was 7.76; in assay [2], 7.20.

Regarding `Nc1ncnc2c1c(C1CC1)cn2Cc1cn(-c2ccccc2F)nn1` [Example 289, 5-Cyclopropyl-7-{[1-(2-fluorophenyl)-1H-1,2,3-triazol-4-yl]methyl}-7H-pyrrolo[2,3-d]pyrimidin-4-amine], the pEC50 in assay [1] was 6.47; in assay [2] it was 6.85.
